Measured values published in ChEMBL document CHEMBL1150598, “Decipinin A and decipienolides A and B: new bioactive metabolites from the coprophilous fungus Podospora decipiens” (2002).
Active and inactive are the calls of the source. No cut-off for these calls is given here.

What was measured:
Ascobolus = test: Antimicrobial activity against Ascobolus furfuraceus NRRL 6460 after 4 days by standard disk assay; type: functional, organism-based
Candida albicans = test: Antimicrobial activity against Candida albicans ATCC 90029 after 4 days by standard disk assay; type: functional, organism-based
Bacillus subtilis = test: Antimicrobial activity against Bacillus subtilis ATCC 6051 at 200 ug/disk after 4 days by standard disk assay; type: functional; conditions: ATCC 6051, 96 h, read-out: IZ
Sordaria fimicola = test: Antimicrobial activity against Sordaria fimicola NRRL 6459 after 4 days by standard disk assay; type: functional, organism-based
Fusarium verticillioides = test: Antimicrobial activity against Fusarium verticillioides ATCC 24378 at 250 ug/disk after 4 days by standard disk assay; type: functional; conditions: ATCC 24378, 96 h, read-out: IZ

Row | Structure (SMILES) | Activity (Ascobolus) | Activity (Candida albicans) | zone of inhibition at 200 µg/disc (Bacillus subtilis) | Activity (Sordaria fimicola) | zone of inhibition at 250 µg/disc (Fusarium verticillioides)
1 | C=C1C(OC(=O)C(C)(C)C(C)O)CC2CC1C21CO[C@@]2(C[C@H](C)C(=O)O2)C1.C=C1C(OC(=O)C(C)(C)C(C)O)CC2CC1C21CO[C@]2(C[C@H](C)C(=O)O2)C1 (some centres undefined) [DECIPIENOLIDE A AND B] | inactive | inactive | 9 mm | inactive | 
2 | CCC/C=C/C=C/C=C/C(=O)O[C@@H]1C2=CC(=O)C(C)(OC(C)=O)C(=O)C2=CO[C@]12O[C@H](C)CC[C@@H]2OC(=O)CCC(=O)O (some centres undefined) [DECIPININ A] | inactive | inactive | 9 mm | inactive | 22 mm
